# According to patent publication US11512097B2, “Heterocyclic compounds as Delta-5 desaturase inhibitors and methods of use” (Amgen Inc., priority 2019, dated 2022):
# pIC50: −log10 of the molar value.
# Biological target: T1, Delta-5-Desaturase (D5D), membrane preparations of D5D-overexpressing HEK293 6E cells (Homo sapiens, UniProt O60427)
# T1 construct: expressed in transfected cells; host or cells: HEK293 6E cells (membrane preparation)
# Test: In vitro measurement of Delta-5-Desaturase inhibitory activity using DGLA-CoA and Arachidonyl-CoA mass spectrometric assays
# Assay type: biochemical
# Settings: D5D membrane 10 μg/mL, one-hour incubation, average of at least two independent runs
# Experimental: In Vitro Measurement of Delta-5-Desaturase Inhibitory Activity Using DGLA-CoA and Arachidonyl-CoA Mass Spectrometric Assays Membrane preparations of D5D-overexpressing HEK293 6E cells were prepared in which the total protein concentration was 5.6 mg/mL. Stock D5D membrane preparations were diluted in D5D assay buffer (25 mM 2-amino-2-(hydroxymethyl)-1,3-propanediol, pH 7.5 containing 10 mM MgCl2, 1 mM octyl glucoside (SigmaAldrich O-8001), 1 mM tris(2-carboxyethyl)phosphine hydrochloride (SigmaAldrich 646547)) to a final D5D membrane concentration of 10 μg/mL in an assay plate containing serially diluted test compounds. To 15 μL of this D5D preparation was added 15 μL of a substrate solution (0.25 mM NADH (nicotinamide adenine dinucleotide, Roche Diag. 10107735001), 0.25 mM adenosine triphosphate (SigmaAldrich A-3377), 0.05 mM coenzyme A hydrate (SigmaAldrich C-4282), and 0.01 mM DGLA (dihomo-g-linolenic acid, Sigma E-4504) in the same D5D assay buffer. After one-hour incubation at ambient temperature acetonitrile (30 μL) was added to quench the reaction and plates were centrifuged for 10 min @ 3,000 rpm. Mass spectrometric analysis involved a Rapidfire 360 SPE system coupled to an ABSciex API4000 Triple Quadrupole mass spectrometer using a C18 SPE cartridge (G9203-80105) with ionization in negative mode (solvent A=100% water; solvent B=100% acetonitrile, each solvent containing 5 mM ammonium acetate). DGLA-CoA and Arachidonyl-CoA were detected by multiple reaction monitoring (MRM) of the doubly charged parent ions at m/z 526.6 and 525.6, respectively. […] Sx is value from unknown sample, So is value from DMSO alone and Sc is value from no enzyme well. For CRC analysis, the % of inhibitions were analysed with 4 Parameter Logistic Model or Sigmoidal Dose-Response Model using XLfit (IDBS, Guilford, UK). The potency of the test item was expressed as IC50 nM, corresponding to the test item concentration able to inhibit the 50% of the enzyme maximal response. IC50 values were averaged values determined by at least two independent runs. The results presented in Table 15 have been generated with the in vitro assay described above. This assay may be used to test any of the compounds described herein to assess and characterize a compound's ability to inhibit D5D.
# T1 sequence (O60427 whole entry, species assumed): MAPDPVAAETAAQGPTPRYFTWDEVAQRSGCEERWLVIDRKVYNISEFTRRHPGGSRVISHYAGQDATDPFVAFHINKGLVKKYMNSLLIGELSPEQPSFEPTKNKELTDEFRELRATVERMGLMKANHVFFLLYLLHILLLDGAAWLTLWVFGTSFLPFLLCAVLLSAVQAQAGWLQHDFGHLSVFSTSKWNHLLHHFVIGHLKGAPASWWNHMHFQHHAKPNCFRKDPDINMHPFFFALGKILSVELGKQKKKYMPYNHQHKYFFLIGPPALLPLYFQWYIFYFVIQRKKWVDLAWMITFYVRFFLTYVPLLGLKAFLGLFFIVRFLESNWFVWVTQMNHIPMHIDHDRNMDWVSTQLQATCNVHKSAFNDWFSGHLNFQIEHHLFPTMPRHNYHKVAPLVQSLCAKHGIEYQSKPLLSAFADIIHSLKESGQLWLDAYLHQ
row,SMILES,pIC50
1,"Cc1cn2c(=O)c(-c3cnn(CC(F)(F)C(F)(F)F)c3)c(C(F)(F)F)nc2n1CCN(C)C [Example 84, 1-[2-(dimethylamino)ethyl]-2-methyl-6-[1-(2,2,3,3,3-pentafluoropropyl)-1H-pyrazol-4-yl]-7-(trifluoromethyl)-1H,5H-imidazo[1,2-a]pyrimidin-5-one]",6.71
2,"Cn1c(C2CC2)cn2c(=O)c(-c3cnn(CC(F)(F)C(F)(F)F)c3)c(C(F)(F)F)nc12 [Example 50, 2-cyclopropyl-1-methyl-6-[1-(2,2,3,3,3-pentafluoropropyl)-1H-pyrazol-4-yl]-7-(trifluoromethyl)-1H,5H-imidazo[1,2-a]pyrimidin-5-one]",6.92
3,"Cc1cn2c(=O)c(-c3cnn(CC(F)(F)C(F)(F)F)c3)c(C(F)(F)F)nc2n1CC(C)(C)O [Example 88, 1-(2-hydroxy-2-methylpropyl)-2-methyl-6-[1-(2,2,3,3,3-pentafluoropropyl)-1H-pyrazol-4-yl]-7-(trifluoromethyl)-1H,5H-imidazo[1,2-a]pyrimidin-5-one]",6.20
4,"COc1cn2c(=O)c(-c3cnn(CC(F)(F)C(F)(F)F)c3)c(C(F)(F)F)nc2n1C [Example 71, 2-methoxy-1-methyl-6-[1-(2,2,3,3,3-pentafluoropropyl)-1H-pyrazol-4-yl]-7-(trifluoromethyl)-1H,5H-imidazo[1,2-a]pyrimidin-5-one]",7.48
5,"C[C@H]1Cn2c(nc(C(F)(F)F)c(-c3cnn(CC(F)(F)C(F)(F)F)c3)c2=O)S1 (single isomer, unassigned) [Example 113]",7.93
6,"Cc1cn2c(=O)c(-c3cnn(CC(F)(F)C(F)(F)F)c3)c(C(F)(F)F)nc2n1CCC1(O)CC1 [Example 89, 1-[2-(1-hydroxycyclopropyl)ethyl]-2-methyl-6-[1-(2,2,3,3,3-pentafluoropropyl)-1H-pyrazol-4-yl]-7-(trifluoromethyl)-1H,5H-imidazo[1,2-a]pyrimidin-5-one]",7.27
7,"Cc1nn2c(=O)c(-c3ccc(OCC(F)(F)F)cc3)c(C(F)(F)F)nc2s1 [Example 40, 2-methyl-6-[4-(2,2,2-trifluoroethoxy)phenyl]-7-(trifluoromethyl)-5H-[1,3,4]thiadiazolo[3,2-a]pyrimidin-5-one]",6.65
8,"Cc1cn2c(=O)c(-c3ccn(CC(F)(F)C(F)(F)F)n3)c(C(F)(F)F)nc2n1C [Example 70, 1,2-dimethyl-6-[1-(2,2,3,3,3-pentafluoropropyl)-1H-pyrazol-3-yl]-7-(trifluoromethyl)-1H,5H-imidazo[1,2-a]pyrimidin-5-one]",5.29
9,"Cc1cn2c(=O)c(-c3cnn(CC(F)(F)C(F)(F)F)c3)c(C(F)(F)F)nc2n1-c1cnn(C)c1 [Example 97, 2-methyl-1-(1-methyl-1H-pyrazol-4-yl)-6-[1-(2,2,3,3,3-pentafluoropropyl)-1H-pyrazol-4-yl]-7-(trifluoromethyl)-1H,5H-imidazo[1,2-a]pyrimidin-5-one]",7.53
10,"Cc1cn2c(=O)c(-c3cnn(CC(F)(F)C(F)(F)F)c3)c(C(F)(F)F)nc2o1 [Example 39, 2-methyl-6-[1-(2,2,3,3,3-pentafluoropropyl)-1H-pyrazol-4-yl]-7-(trifluoromethyl)-5H-[1,3]oxazolo[3,2-a]pyrimidin-5-one]",7.73
11,"Cc1nn2c(=O)c(-c3cnn(C[C@@H]4CC4(F)F)c3)c(C(F)(F)F)nc2s1 (single isomer, unassigned) [Example 112]",6.06
12,"Cc1cc2nc(C(F)(F)F)c(-c3cnn(CC(F)(F)C(F)(F)F)c3)c(=O)n2n1C [Example 16, 1,2-dimethyl-6-[1-(2,2,3,3,3-pentafluoropropyl)-1H-pyrazol-4-yl]-5-(trifluoromethyl)-1H,7H-pyrazolo[1,5-a]pyrimidin-7-one]",5.03
13,"Cc1cn2c(=O)c(-c3cnn(CC(F)(F)C(F)(F)F)c3)c(C(F)(F)F)nc2n1-c1ccccc1 [Example 100, 2-methyl-6-[1-(2,2,3,3,3-pentafluoropropyl)-1H-pyrazol-4-yl]-1-phenyl-7-(trifluoromethyl)-1H,5H-imidazo[1,2-a]pyrimidin-5-one]",5.39
14,"CCc1nc2sc(C)nn2c(=O)c1-c1cnn(CC(F)(F)C(F)(F)F)c1 [Example 15, 7-ethyl-2-methyl-6-[1-(2,2,3,3,3-pentafluoropropyl)-1H-pyrazol-4-yl]-5H-[1,3,4]thiadiazolo[3,2-a]pyrimidin-5-one]",5.82
15,"CCOc1nc2sc(C)nn2c(=O)c1-c1cnn(CC(F)(F)C(F)(F)F)c1 [Example 41, 7-ethoxy-2-methyl-6-[1-(2,2,3,3,3-pentafluoropropyl)-1H-pyrazol-4-yl]-5H-[1,3,4]thiadiazolo[3,2-a]pyrimidin-5-one]",6.06
16,"Cc1cn2c(=O)c(-c3cnn(CCC(F)(F)F)c3)c(C(F)(F)F)nc2n1C [Example 53, 1,2-dimethyl-7-(trifluoromethyl)-6-[1-(3,3,3-trifluoropropyl)-1H-pyrazol-4-yl]-1H,5H-imidazo[1,2-a]pyrimidin-5-one]",8.19
17,"Cc1cn2c(=O)c(-c3cnn(CC(F)(F)C(F)(F)F)c3)c(C(F)(F)F)nc2s1 [Example 4, 2-methyl-6-[1-(2,2,3,3,3-pentafluoropropyl)-1H-pyrazol-4-yl]-7-(trifluoromethyl)-5H-[1,3]thiazolo[3,2-a]pyrimidin-5-one]",7.75
18,"CC(C)N1C(=O)Cn2c1nc(C(F)(F)F)c(-c1cnn(CC(F)(F)C(F)(F)F)c1)c2=O [Example 35, 6-[1-(2,2,3,3,3-pentafluoropropyl)-1H-pyrazol-4-yl]-1-(propan-2-yl)-7-(trifluoromethyl)-1H,2H,3H,5H-imidazo[1,2-a]pyrimidine-2,5-dione]",6.93
19,"Cc1cn2c(=O)c(-c3cnn(CCC(F)(F)F)c3)c(C(F)(F)F)nc2n1CCO [Example 83, 1-(2-hydroxyethyl)-2-methyl-7-(trifluoromethyl)-6-[1-(3,3,3-trifluoropropyl)-1H-pyrazol-4-yl]-1H,5H-imidazo[1,2-a]pyrimidin-5-one]",7.94
20,"CCn1c(C)cn2c(=O)c(-c3cnn(CC(F)(F)C(F)(F)F)c3)c(C(F)(F)F)nc12 [Example 56, 1-ethyl-2-methyl-6-[1-(2,2,3,3,3-pentafluoropropyl)-1H-pyrazol-4-yl]-7-(trifluoromethyl)-1H,5H-imidazo[1,2-a]pyrimidin-5-one]",7.46
21,"Cc1cn2c(=O)c(-c3cnn(CCC(F)(F)F)c3)c(C(F)(F)F)nc2n1CC1CC1(F)F (stereo not drawn) [Example 81, 1-[(2,2-difluorocyclopropyl)methyl]-2-methyl-7-(trifluoromethyl)-6-[1-(3,3,3-trifluoropropyl)-1H-pyrazol-4-yl]-1H,5H-imidazo[1,2-a]pyrimidin-5-one]",6.98
22,"Cc1cn2c(=O)c(-c3cnn(CC(F)(F)C(F)(F)F)c3)c(C(F)(F)F)nc2n1-c1ccccn1 [Example 93, 2-methyl-6-[1-(2,2,3,3,3-pentafluoropropyl)-1H-pyrazol-4-yl]-1-(pyridin-2-yl)-7-(trifluoromethyl)-1H,5H-imidazo[1,2-a]pyrimidin-5-one]",6.17
23,"Cc1cn2c(=O)c(-c3cnn(CC(F)(F)C(F)(F)F)c3)c(C(F)(F)F)nc2n1CC(C)O (stereo not drawn) [Example 64, 1-(2-hydroxypropyl)-2-methyl-6-[1-(2,2,3,3,3-pentafluoropropyl)-1H-pyrazol-4-yl]-7-(trifluoromethyl)-1H,5H-imidazo[1,2-a]pyrimidin-5-one]",6.62
24,"Cn1cnn2c(=O)c(-c3cnn(CC(F)(F)C(F)(F)F)c3)c(C(F)(F)F)nc12 [Example 38, 3-methyl-6-[1-(2,2,3,3,3-pentafluoropropyl)-1H-pyrazol-4-yl]-5-(trifluoromethyl)-3H,7H-[1,2,4]triazolo[1,5-a]pyrimidin-7-one]",7.17
25,"Cc1nn2c(=O)c(-c3cnn(CC4CC(F)(F)C4)c3)c(C(F)(F)F)nc2s1 [Example 26, 6-{1-[(3,3-difluorocyclobutyl)methyl]-1H-pyrazol-4-yl}-2-methyl-7-(trifluoromethyl)-5H-[1,3,4]thiadiazolo[3,2-a]pyrimidin-5-one]",6.98
26,"Cn1c(Cl)cn2c(=O)c(-c3cnn(CCC(F)(F)F)c3)c(C(F)(F)F)nc12 [Example 51, 2-chloro-1-methyl-7-(trifluoromethyl)-6-[1-(3,3,3-trifluoropropyl)-1H-pyrazol-4-yl]-1H,5H-imidazo[1,2-a]pyrimidin-5-one]",7.43
27,"Cc1cn2c(=S)c(-c3cnn(CC(F)(F)C(F)(F)F)c3)c(C(F)(F)F)nc2n1C [Example 92, 1,2-dimethyl-6-[1-(2,2,3,3,3-pentafluoropropyl)-1H-pyrazol-4-yl]-7-(trifluoromethyl)-1H,5H-imidazo[1,2-a]pyrimidine-5-thione]",6.88
